Read-outs that look alike come from different tables or passages of the source.
What was measured:
[1] = tested on: rat hearts subjected to ischemia/reperfusion; experiment: myocardial infarct size after LAD occlusion and reperfusion, TTC staining; format: in vivo, Sprague-Dawley rats; settings: 4 hr reperfusion; for infarct size/area at risk: mean±SEM
Procedure: (§1) Ischemia/reperfusion protocols were performed using Sprague-Dawley rats (Harlan Sprague-Dawley, Indianapolis, Indiana). Left anterior descending (LAD) coronary artery occlusion was performed by tying off the LAD artery near its origin using a suture. Glucan phosphate was employed in the ischemia reperfusion (I/R) studies.
Sprague-Dawley rats (250-300 g) were treated, with (1→3)-β-D-glucans at a concentration of 40 mg/kg one hour before the hearts were subjected to 45 minutes of occlusion of the left anterior descending (LAD) coronary artery, followed by reperfusion for 4 hours. At the completion of the experimental protocol, the heart was removed, rinsed free of blood, stained with 1% Evans Blue, and sectioned into five slices, followed by incubation in triphenyltetrazolium chloride (TTC) solution. Viable myocardium (risk area) was stained with TTC while the necrotic myocardium was pale white. The area of infarction on both sides of each slice was analyzed by an image analyzer (Alpha Imager 2000), corrected for each slice weight and summed for each left ventricle. The infarct areas were expressed as a percentage of risk area as well as a percentage of left ventricle and the risk areas were expressed as a percentage of left ventricle.
Glucan phosphate (40 mg/kg) was administered to rats via intravenous route 5 min. after the rat hearts were subjected to occlusion of the left afterior descending (LAD) coronary artery, followed by 4 hr. reperfusion. Subsequently, the hearts were harvested and the infarct size/area at risk was determined using TTC staining and image analysis as described previously. FIG. 19 illustrates results, with infarct size expressed as percentage of risk area and risk area expressed as percentage of the left ventricle.

IκBα = experiment: Western blot of cytoplasmic IκBα in rat myocardium after I/R; format: in vivo, Sprague-Dawley rats; settings: 40 mg/Kg one hr before 15 min ischemia and 30 min reperfusion
Procedure: FIG. 15 is a graphic representation of effect of glucan on loss of IκBα from rat myocardial cytoplasm following I/R. Rats were pretreated with glucan (40 mg/Kg) for one hr. before being subjected to 15 min. of ischemia and 30 min. of reperfusion. Cytoplasmic proteins were isolated and levels of IκBα protein determined by Western blot analysis. Results were expressed as means±SEM for 5 hearts at each time point. P<0.05 as compared to normal (N).
as §1
(§2) To investigate NF-κB activation in vivo, rat hearts were subjected to various periods of ischemia or ischemia and reperfusion (I/R). For example, levels of IκBα and phosphorylated IκBα proteins in cell cytoplasm following ischemia were evaluated by Western blot with anti-IκBα or antibody specific for the phosphorylated […] (FIG. 9a). NF-κB binding activity in the nucleus following onset of ischemia was analyzed by electrophoretic mobility shift assay (EMSA) (FIG. 10a). […]

[2] = tested on: cardiac myocyte apoptosis; experiment: TUNEL assay of cardiac myocyte apoptosis after I/R; format: in vivo, Sprague-Dawley rats; settings: 40 mg/kg 1 hr before 30 min ischemia, 3 hr reperfusion; untreated I/R hearts 17.17±1.41%
Procedure: as §1
The effects of (1→3)-β-D-glucan on apoptosis were investigated using rats treated with (1-3)-β-D-glucan (40 mg/kg) 1 hr. before the. hearts were subjected to 30 min. of ischemia followed by 3 hr. reperfusion. Upon completion of the protocol, the hearts were removed, rinsed free of blood, and perfused with freshly prepared phosphate-buffered 4% formaldehyde. Heart segments distal to the ligation were horizontally sliced into 2 mm sections and fixed with phosphate-buffered 4% formaldehyde at 4° C. overnight. The terminal deoxynucleotidyl transferase-mediated dUTP nick end-labeling (TUNEL) technique (Gavrieli, Y., et al., J. Cell Biol. (1992) 119: 493-501) was used to quantitate the level of apoptosis, using an In Situ Cell Death Detection Kit (Roche Diagnostics) and manufacturer's instructions. Briefly, three slides from each block were evaluated to determine the percentage of TUNEL positive cells. For each slide, four fields were randomly examined using a defined rectangular field area with magnification of 200×. A total of 100 cells were counted in each field. […]

TNFα mRNA = experiment: RT-PCR of TNFα mRNA in rat myocardium after I/R; format: in vivo, Sprague-Dawley rats; settings: 40 mg/Kg 1 hr before 15 min ischemia and 1 hr reperfusion
Procedure: FIG. 17 depicts RT-PCR analysis of total RNA obtained from rat myocardium pretreated with glucan (40 mg/Kg) for 1 hr. prior to 15 min. ischemia and 1 hr. reperfusion. TNFα and GAPDH are labeled at right to indicate the position of the corresponding RNA. M is a 100 bp DNA ladder. As indicated, pretreatment with glucan (I15′R1 hr+Glucan) decreases myocardial TNFα mRNA expression after I/R.
as §1
The inventors also investigated whether (1→3)-β-D-glucans regulate TNFα gene expression. […] (1→3)-β-D-glucan down-regulates LPS-induced TNFα mRNA expression in vivo.

NF-κB [3] = experiment: EMSA of nuclear NF-κB binding activity in rat myocardium after I/R; format: in vivo, Sprague-Dawley rats; settings: 40 mg/Kg one hr before ischemia (I45 or I15R30)
Procedure: Rats were pretreated with glucan (40 mg/Kg) for one hr. before being subjected to 45 min. of ischemia (I45), as well as 15 min. ischemia followed by 30 min. reperfusion (I15R30). Nuclear proteins were isolated and analyzed by EMSA. Results are expressed as means±SEM for 5 hearts at each time point. P<0.05 as compared to normal (N).
as §1, §2
NF-κB nuclear binding activity in rat myocardium after in vivo I/R was also determined. […]

NF-IL6 = experiment: EMSA of NF-IL6 nuclear binding activity in liver and lung after CLP; format: in vivo, ICR/HSD mice; settings: for decrease of liver NF-IL6 binding activity / decrease of lung NF-IL6 binding activity: tissue 3 hours after CLP
Procedure: (§3) Nuclear extracts were prepared by homogenizing tissue in hypotonic buffer containing protease inhibitors and incubating the homogenates on ice for approximately 30 minutes with gentle agitation. After cells were lysed, nuclei were collected by centrifugation (14,000 revolutions/min for 5 minutes). Nuclear proteins were extracted by incubating the nuclear fraction on ice for 30 minutes in hypertonic salt buffer containing protease inhibitors. Nuclear extract supernatant was harvested after centrifugation, then stored at −80° C. Protein was quantified by the BCA microprotein assay (Pierce, Rockford, Ill.).
(§4) The electrophoretic mobility shift assay (EMSA) was performed using double-stranded consensus binding site oligonucleotides for NF-κB and NF-IL6 (C/EBP, CCAAT enhancer binding protein), obtained from Santa Cruz Biotechnology (Santa Cruz, Calif.). Oligonucleotides were end-labeled with [γ-^32P]-labeled adenosine triphosphate (Amersham, Arlington Heights, Ill.) with T4 polynucleotide kinase (Promega, Madison, Wis.), using methods known to those of skill in the art. Binding assays were performed in 10 μl of binding reaction mixture containing 10 μg of nuclear proteins and [γ-^32P]-labeled NF-κB or NF-IL6 oligonucleotides. The binding reaction mixture was incubated at room temperature for 20 minutes, then electrophoresed on 4% non-denaturing polyacrylamide gel electrophoresis (PAGE) gels. Specificity of binding was confirmed by addition of a 10-fold excess of cold oligonucleotide to separate reaction mixtures. A 10-fold excess of cold oligonucleotide containing the AP-1 binding site was added to separate reaction mixtures as an additional control. After PAGE, gels were dried and exposed to Kodak X-omat® film at −70° C. Autoradiograms were quantified by scanning densitometry with a Sun IPC workstation running Bioimage® software (Millipore, Bedford, Mass.).
(§5) In studies of (1→3)-β-D-glucan effects on tissue damage due to sepsis, blood (˜0.3 ml) was obtained by open heart puncture from groups of 3 ICR/HSD mice subjected to cecal ligation and puncture (CLP), performed according to the method of Baker et al., Suryery (1983) 94: 331-335, as described by Ayala et al., Circ. Shock (1992) 36: 191-199. Mice subjected to laparotomy only (LO) served as surgical and anesthesia controls. Negative controls were not subjected to either procedure. Blood samples were collected from each group at 1, 2, 4, 8, and 24 hours after surgery. Samples were inoculated into prereduced anaerobically sterilized chopped meat carbohydrate broth (Carr-Scarborough, Stone Mountain, Ga.) under a constant stream of anaerobic carbon dioxide in a VPI Inoculator (Bellco Glass, Vineland, N.J.). After mixing, 1 ml of inoculated broth was aseptically removed from each 6-ml rubber-stoppered anaerobic tube into a sterile loose-capped aerobic culture tube. Both aerobic and anaerobic culture tubes were incubated at 37° C. for 72 hours.
(§6) In pretreatment protocols, 45 mice were randomly divided into 3 groups of 15 mice per group. Group 1 received isovolumetric saline solution intraperitoneally 1 hour before CLP. Group 2 received glucan phosphate (1 mg/mouse=50 mg/kg, intraperitoneally) 1 hour prior to CLP. Group 3 received scleroglucan (1 mg/mouse=50 mg/kg, intraperitoneally) 1 hour prior to CLP. To assess tissue transcription factor activation and cytokine messenger RNA (mRNA) levels, liver and lung tissue were harvested from 5 mice per group at 3 hours after surgery. […] Laparoscopy-only (LO) controls and negative controls received the same saline, glucan phosphate, and scleroglucan treatment as CLP mice.
(§7) In post-treatment protocols, 30 mice were subjected to CLP. These 30 mice were then randomly divided into 2 groups of 15 mice per group. Group 1 received isovolumetric saline solution intravenously 15 minutes post surgery. Group 2 received glucan phosphate (1 mg/mouse=50 mg/kg, intravenously) 15 minutes postsurgery. […]

NF-κB [4] = experiment: EMSA of NF-κB nuclear binding activity in liver and lung after cecal ligation and puncture (CLP); format: in vivo, ICR/HSD mice; settings: for decrease of liver NF-κB binding activity / decrease of lung NF-κB binding activity: tissue 3 hours after CLP
Procedure: as §3, §4, §5, §6, §7

[5] = tested on: ICR/HSD mice subjected to CLP (polymicrobial sepsis); experiment: survival of mice with polymicrobial sepsis induced by CLP; format: in vivo; settings: for long-term survival rate: CLP control 20%
Procedure: as §5, §6
In post-treatment protocols, 30 mice were subjected to CLP. These 30 mice were then randomly divided into 2 groups of 15 mice per group. […]
(§8) Survival trends were compared with the Cox proportional hazard and log-rank procedures. […] Differences in bacteremia between LO and CLP groups were assessed with exact probability level determinations. […]

[6] = biological target: macrophage (1→3)-β-D-Glucan receptor; settings: cited from earlier work
TNF-α mRNA = experiment: RT-PCR of TNF-α mRNA levels in liver and lung after CLP; format: in vivo, ICR/HSD mice
Procedure: (§9) Cytokine reverse transcriptase-polymerase chain reaction (RT-PCR) assays were performed using standard techniques known to those of skill in the art. Upstream and downstream primers for murine TNF-α and IL-6 were used to detect presence of those cytokines. Reduced glyceraldehyde phosphate dehydrogenase (GAPDH) was used as the gene transcript control.
as §5
(§10) In pretreatment protocols, 45 mice were randomly divided into 3 groups of 15 mice per group. Group 1 received isovolumetric saline solution intraperitoneally 1 hour before CLP. Group 2 received glucan phosphate (1 mg/mouse=50 mg/kg, intraperitoneally) 1 hour prior to CLP. Group 3 received scleroglucan (1 mg/mouse=50 mg/kg, intraperitoneally) 1 hour prior to CLP. […]
as §8

IL-6 mRNA = experiment: RT-PCR of IL-6 mRNA levels in liver and lung after CLP; format: in vivo, ICR/HSD mice
Procedure: as §9, §5, §10, §8

[7] = posttreatment 50 mg/kg intravenously 15 minutes after CLP
[8] = pretreatment 50 mg/kg 1 hour before CLP
[9] = posttreatment 50 mg/kg intravenously 15 minutes post surgery
[10] = pretreatment 50 mg/kg, 3 hours after CLP

## (1→3)-β-D-glucan
[1]; 40 mg/kg one hour before 45 min LAD occlusion, untreated 48.82±3.03%
  infarct size/area at risk: 25.86±2.33%
IκBα
  effect on cytoplasmic IκBα after I/R: prevent loss
[2]
  apoptotic cell nuclei (TUNEL positive): 3.33±0.71%
TNFα mRNA
  effect on I/R increase in TNFα mRNA levels: significantly inhibited
NF-κB [3]
  effect on I/R induced myocardial NF-κB binding activity: markedly reduced, but did not completely inhibit

## glucan phosphate
NF-IL6; [7]
  decrease of liver NF-IL6 binding activity: 95%
  decrease of lung NF-IL6 binding activity: 63%
NF-IL6; [8]
  decrease of liver NF-IL6 binding activity: 77%
  decrease of lung NF-IL6 binding activity: 68%
NF-κB [4]; [7]
  decrease of liver NF-κB binding activity: 42%
  decrease of lung NF-κB binding activity: 54%
NF-κB [4]; [8]
  decrease of liver NF-κB binding activity: 58%
  decrease of lung NF-κB binding activity: 81%
[1]; 40 mg/kg intravenously 5 min after LAD occlusion
  reduction of infarct size/area at risk compared to control IR group: 53%
[1]; 40 mg/kg intravenously 5 min after LAD occlusion, control IR 51.03±3.69%
  infarct size/area at risk: 24.39±2.00%
[5]; single posttreatment injection 50 mg/kg intravenously 15 minutes after CLP
  long-term survival rate: 65%
[5]; single prophylactic injection 50 mg/kg intraperitoneally 1 hour before CLP
  long-term survival rate: 65%
[6]; low affinity, read-out: affinity for the macrophage (1→3)-β-D-glucan receptor
  Kd: 24 µM
TNF-α mRNA; [9]
  suppression of hepatic TNF-α mRNA levels relative to CLP controls: 31%
  suppression of lung TNF-α mRNA levels relative to CLP controls: 28%
TNF-α mRNA; [10]
  suppression of hepatic TNF-α mRNA levels relative to CLP controls: 44%
IL-6 mRNA; [9]
  effect on hepatic IL-6 mRNA levels: not altered
  suppression of lung IL-6 mRNA levels relative to CLP controls: 30%
IL-6 mRNA; [10]
  suppression of hepatic IL-6 mRNA levels relative to CLP controls: 49%

## scleroglucan
NF-IL6; [8]
  decrease of liver NF-IL6 binding activity: 38%
NF-IL6; [10]
  effect on lung NF-IL6 nuclear binding activity: inhibited
NF-κB [4]; [8]
  decrease of liver NF-κB binding activity: 54%
NF-κB [4]; [10]
  effect on lung NF-κB nuclear binding activity: inhibited
[5]; 50 mg/kg intraperitoneally 1 hour before CLP
  effect on long-term survival: increased long-term survival
[6]; high affinity, read-out: affinity for the (1→3)-β-D-glucan receptor
  Kd: 0.011 µM

— patent US6713459B1, “Methods for the prophylactic and therapeutic treatment of cardiac tissue damage” (East Tennessee State University, priority 2000, dated 2004)
